Some test systems named below: HCT-116; SK-OV-3; SNB-75; K562; EKVX; HOP-62; NCI-H226; SK-MEL-28; SK-MEL-5; T47D; Hs-578T; NCI-H23; UACC-257; HOP-92; HL-60; PC-3; HCT-15; MDA-MB-435; COLO 205.
Holding throughout (assay): NCI tumour cell line growth inhibition, 48 h

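These data come from cells grown in 96-well plates and exposed to compound for 48 hours at five concentrations. GI50 = concentration required for 50% inhibition of growth.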 Calls of active or inactive are those of the source. No stated cut-off is given here; in the data, active = GI50 up to about 1.1 µM and inactive = higher. Some results are limits rather than exact numbers.

For the compound `CN1CCc2c(sc3ncn(Nc4ccc(F)cc4)c(=N)c23)C1`, the GI50 in the test on HCT-116, with SK-OV-3, in the test with SNB-75, in the test with K562, in the test on EKVX and in the test on HOP-62 was > 100 µM (inactive) in each case. The GI50 with NCI-H226 is 92 µM (inactive); in the test on SK-MEL-28, > 100 µM (inactive); in the test on SK-MEL-5, > 100 µM (inactive); in the test with T47D, > 100 µM (inactive); in the test on Hs-578T, > 100 µM (inactive); in the test with NCI-H23 it was > 100 µM (inactive). Besides, the GI50 is > 100 µM (inactive) in the test with UACC-257; > 100 µM (inactive) in the test on HOP-92; > 100 µM (inactive) in the test on HL-60; > 100 µM (inactive) in the test with PC-3; greater than 100 µM in the test on HCT-15; > 100 µM (inactive) with MDA-MB-435.
Consider `COC(=O)[C@@H]1CO[C@H](C(C)(C)C)N1C(=O)N1C=CC(=O)C[C@H]1C`, for which the GI50 in the test with HCT-116, with COLO 205, in the test on SK-OV-3, with SNB-75, in the test with K562 and in the test on EKVX was > 100 µM (inactive) each time. Moreover, the GI50 in the test with HOP-62, in the test on NCI-H226, in the test on SK-MEL-28, in the test on SK-MEL-5, in the test with T47D and in the test on Hs-578T was > 100 µM (inactive) throughout. The GI50 in the test on NCI-H23, with UACC-257, in the test on HOP-92, with HL-60, in the test with PC-3 and in the test with MDA-MB-435 was > 100 µM (inactive) throughout.
As to `Cc1ccc2c(c1C)C(=O)C1(Cc3cc4c(cc3C1=O)CCC4)C2` (stereo not drawn), the GI50 with HCT-116, in the test with COLO 205, with SK-OV-3, with SNB-75, with K562 and with EKVX was > 100 µM (inactive) throughout. Further, the GI50 with NCI-H226, with SK-MEL-28, in the test with SK-MEL-5, with T47D, with Hs-578T and in the test with NCI-H23 was > 100 µM (inactive) each time. The GI50 is > 100 µM (inactive) in the test with UACC-257; > 100 µM (inactive) in the test with HOP-92; > 100 µM (inactive) in the test with HL-60; > 100 µM (inactive) in the test with PC-3; greater than 100 µM in the test with HCT-15; > 100 µM (inactive) in the test with MDA-MB-435.
Turning to `CCC1=C(CC2NCCc3cc(OC)c(OC)cc32)CC2c3ccccc3CCN2C1` (stereo not drawn), the GI50 is 8.55 µM (inactive) with HCT-116; 10.2 µM (inactive) with COLO 205; > 100 µM (inactive) in the test with SK-OV-3; 19.8 µM (inactive) with SNB-75; 10.1 µM (inactive) with K562; 22.2 µM (inactive) in the test with EKVX. The GI50 with HOP-62 was 21.7 µM (inactive); with NCI-H226, 19 µM (inactive); in the test on SK-MEL-28, 13.9 µM (inactive); with SK-MEL-5, 14.8 µM (inactive); in the test on T47D it was 20.7 µM (inactive); in the test with Hs-578T, 15.4 µM (inactive). In addition, the GI50 with UACC-257 was 18.1 µM (inactive); in the test on HOP-92, 12.8 µM (inactive); with HL-60, 9.06 µM (inactive); in the test on PC-3 it was 16.2 µM (inactive); in the test with HCT-15, 37.9 µM; in the test on MDA-MB-435, 13.1 µM (inactive).
`C/C=N\n1c(C)c(C#N)c(C#N)c1N`: the GI50 with HCT-116, with COLO 205, in the test on SK-OV-3, with SNB-75, with K562 and in the test on EKVX was > 100 µM (inactive) in each case. The GI50 in the test on HOP-62, in the test on NCI-H226, in the test with SK-MEL-5, with T47D, in the test with Hs-578T and with NCI-H23 was > 100 µM (inactive) in each case. In addition, the GI50 is > 100 µM (inactive) in the test with UACC-257; > 100 µM (inactive) in the test on HOP-92; > 100 µM (inactive) in the test with HL-60; > 100 µM (inactive) in the test on PC-3; greater than 100 µM in the test with HCT-15; > 100 µM (inactive) in the test on MDA-MB-435.
For the compound `CCCNC1=C2C[C@@H](C)C[C@@H](OC)[C@@H](OC(=O)CCCN)[C@H](C)/C=C(\C)[C@@H](OC(N)=O)[C@H](OC)/C=C\C=C(/C)C(=O)NC(=CC1=O)C2=O`, the GI50 in the test with HCT-116 was 8.97 µM (inactive); with COLO 205, 3.52 µM (inactive); with SK-OV-3, 16.4 µM (inactive); with K562, 4.75 µM (inactive); in the test with EKVX, 17.6 µM (inactive); with HOP-62, 15.6 µM (inactive). Moreover, the GI50 is 18.5 µM (inactive) with NCI-H226; 17.6 µM (inactive) in the test with SK-MEL-28; 9.29 µM (inactive) in the test on SK-MEL-5; 12.7 µM (inactive) in the test with T47D; 25.6 µM (inactive) with Hs-578T; 11.6 µM (inactive) in the test with NCI-H23. The GI50 is 12.7 µM (inactive) in the test on HOP-92; 2.13 µM (inactive) in the test with HL-60; 12.6 µM (inactive) with PC-3; 21.5 µM in the test on HCT-15; 13 µM (inactive) in the test on MDA-MB-435.
Take `CCCCCCCCCCc1c2nc(c(CCCCCCCCCC)c3ccc([nH]3)c(CCCCCCCCCC)c3nc(c(CCCCCCCCCC)c4ccc1[nH]4)C=C3)C=C2`: the GI50 with HCT-116, with COLO 205, in the test with SK-OV-3, with SNB-75, in the test on K562 and in the test with EKVX was > 100 µM (inactive) each time. The GI50 with HOP-62 was > 100 µM (inactive); in the test with NCI-H226 it was > 100 µM (inactive); with SK-MEL-28, > 100 µM (inactive); with SK-MEL-5 it was > 100 µM (inactive); in the test with T47D, > 100 µM (inactive); in the test on Hs-578T, 30 µM (inactive). In addition, the GI50 is > 100 µM (inactive) in the test on NCI-H23; > 100 µM (inactive) with UACC-257; > 100 µM (inactive) with HOP-92; > 100 µM (inactive) in the test with HL-60; > 100 µM (inactive) in the test with PC-3; greater than 100 µM in the test with HCT-15. Further, the GI50 with MDA-MB-435 was > 100 µM (inactive).
On to `CCOC(=O)c1nc2ccc(C(F)(F)F)cc2nc1Oc1cc(OC)c(OC)c(OC)c1`, for which the GI50 is 50.9 µM (inactive) in the test on HCT-116; 17.7 µM (inactive) in the test with COLO 205; > 100 µM (inactive) in the test with SK-OV-3; 19.5 µM (inactive) in the test on SNB-75; 36.7 µM (inactive) in the test with K562; 35.3 µM (inactive) in the test with EKVX. Besides, the GI50 with HOP-62 is 25.6 µM (inactive); in the test on NCI-H226 it was 27.2 µM (inactive); in the test with SK-MEL-28, > 100 µM (inactive); with SK-MEL-5, 23.1 µM (inactive); in the test with T47D, > 100 µM (inactive); in the test with Hs-578T, 16.8 µM (inactive). Besides, the GI50 in the test on UACC-257 is 40.4 µM (inactive); with HOP-92 it was 14.5 µM (inactive); in the test on HL-60, > 100 µM (inactive); in the test on PC-3, > 100 µM (inactive); in the test with HCT-15 it was 72.9 µM; in the test with MDA-MB-435, > 100 µM (inactive).
With `Cc1c([N+](=O)[O-])ccc2c(NCCCN(C)C)ccnc12`, the GI50 is 15.2 µM (inactive) in the test with HCT-116; 12.2 µM (inactive) in the test with COLO 205; 39.8 µM (inactive) in the test on SK-OV-3; 25.4 µM (inactive) with SNB-75; 48.6 µM (inactive) with K562; 31.1 µM (inactive) in the test with HOP-62. Further, the GI50 in the test with NCI-H226 was 30.4 µM (inactive); with SK-MEL-28, 25.5 µM (inactive); with SK-MEL-5, 16 µM (inactive); in the test with T47D it was 25.4 µM (inactive); in the test on Hs-578T, 24 µM (inactive); in the test with NCI-H23 it was 19 µM (inactive). In addition, the GI50 in the test with UACC-257 was 17.2 µM (inactive); with HOP-92, 16.5 µM (inactive); in the test on HL-60, > 100 µM (inactive); with PC-3, 16.4 µM (inactive); in the test on HCT-15, 17.3 µM; in the test with MDA-MB-435 it was 17.5 µM (inactive).
On to `O=c1oc2c/c(=C\c3ccccc3)c(=O)c3cccc1c3-2`, for which the GI50 is 25.7 µM (inactive) in the test with HCT-116; 37.3 µM (inactive) in the test with COLO 205; > 100 µM (inactive) in the test with SK-OV-3; 41.4 µM (inactive) in the test on SNB-75; 75.3 µM (inactive) with EKVX; 19.9 µM (inactive) with HOP-62. Besides, the GI50 with NCI-H226 was 31.7 µM (inactive); in the test with SK-MEL-28, 36.1 µM (inactive); in the test with SK-MEL-5, > 10 µM (inactive); with T47D, 27.3 µM (inactive); in the test on Hs-578T it was 14.8 µM (inactive); in the test on NCI-H23 it was 36.7 µM (inactive). The GI50 in the test with UACC-257 was 31.7 µM (inactive); in the test on HOP-92 it was 19.6 µM (inactive); in the test on HL-60 it was 27.1 µM (inactive); in the test with PC-3, 56 µM (inactive); with HCT-15, 36.6 µM; with MDA-MB-435, 21.4 µM (inactive).
Consider `Cc1cn(CCCCCCOC(=O)NC(CCCNC(N)=O)C(=O)O)c(=O)[nH]c1=O` (stereo not drawn), for which the GI50 with HCT-116, with COLO 205, with SK-OV-3, in the test with SNB-75, in the test on K562 and in the test with EKVX was > 100 µM (inactive) each time. The GI50 in the test on HOP-62, in the test on NCI-H226, with SK-MEL-28, in the test on T47D, with Hs-578T and in the test on NCI-H23 was > 100 µM (inactive) in each case. Also, the GI50 in the test on UACC-257 was > 100 µM (inactive); in the test with HOP-92, > 100 µM (inactive); with HL-60, > 100 µM (inactive); in the test on PC-3, > 100 µM (inactive); with HCT-15, greater than 100 µM; in the test with MDA-MB-435 it was > 100 µM (inactive).
